Where “and” joins values, the source holds several entries; their conditions need not be identical. Identical values can stand only once. Like-named read-outs stand apart in the source and are kept apart here.
Tests used:
[1] = biological target: T1, A tetrodotoxin-resistant voltage-gated sodium channel (NAVI1.5) (Homo sapiens, UniProt Q14524); assay: cell-based; conditions: read-out: Maximal Response
T1 construct: DiscoverX (SAFETYscan contract panel)

[2] = biological target: T2, Norepinephrine transporter (NET) (Homo sapiens, UniProt P23975); assay: SAFETYscan NET Transporter; assay type: cell-based; conditions: Blocker mode; 10 μM HU-MCA-13; read-out: Maximal Response
T2 construct: DiscoverX (SAFETYscan contract panel)
T2 sequence (P23975 whole entry): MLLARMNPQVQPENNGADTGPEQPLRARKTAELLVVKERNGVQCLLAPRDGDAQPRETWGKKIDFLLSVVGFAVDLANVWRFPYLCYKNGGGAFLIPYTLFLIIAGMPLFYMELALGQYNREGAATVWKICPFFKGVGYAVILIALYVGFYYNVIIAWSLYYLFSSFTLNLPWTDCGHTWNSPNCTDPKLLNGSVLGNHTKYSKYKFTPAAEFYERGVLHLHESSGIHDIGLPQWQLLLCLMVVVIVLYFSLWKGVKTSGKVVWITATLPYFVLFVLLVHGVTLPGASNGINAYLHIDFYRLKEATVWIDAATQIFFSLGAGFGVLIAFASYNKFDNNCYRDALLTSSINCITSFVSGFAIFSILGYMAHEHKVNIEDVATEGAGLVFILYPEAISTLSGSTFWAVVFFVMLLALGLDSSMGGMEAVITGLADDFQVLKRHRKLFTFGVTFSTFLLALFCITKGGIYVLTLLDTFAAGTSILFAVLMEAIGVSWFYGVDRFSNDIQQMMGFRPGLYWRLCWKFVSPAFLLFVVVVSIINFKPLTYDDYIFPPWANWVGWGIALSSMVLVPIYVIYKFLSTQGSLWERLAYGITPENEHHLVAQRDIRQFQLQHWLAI

[3] = biological target: Adrenergic Receptor β1 (ADRB1) (Homo sapiens, UniProt P08588); assay: SAFETYscan ADRB1 cAMP; assay type: cell-based; conditions: 10 μM HU-MCA-13, read-out: Maximal Response
Adrenergic Receptor β1 (ADRB1), sequence (P08588 whole entry): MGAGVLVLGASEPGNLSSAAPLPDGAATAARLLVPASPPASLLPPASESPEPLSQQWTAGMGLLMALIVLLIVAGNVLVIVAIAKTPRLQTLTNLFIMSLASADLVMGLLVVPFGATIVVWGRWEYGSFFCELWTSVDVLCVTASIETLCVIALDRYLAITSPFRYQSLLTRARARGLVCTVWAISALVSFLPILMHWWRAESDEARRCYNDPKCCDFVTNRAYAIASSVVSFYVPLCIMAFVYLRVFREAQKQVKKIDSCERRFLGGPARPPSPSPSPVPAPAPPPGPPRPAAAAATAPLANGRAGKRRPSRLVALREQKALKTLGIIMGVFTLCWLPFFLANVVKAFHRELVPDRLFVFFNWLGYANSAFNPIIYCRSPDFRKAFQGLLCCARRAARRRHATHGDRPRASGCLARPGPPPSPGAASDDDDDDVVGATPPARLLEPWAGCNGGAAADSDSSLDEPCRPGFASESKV

[4] = biological target: T3, Lymphocyte Cell-Specific Protein-Tyrosine Kinase (Src family) (LCK) (Homo sapiens, UniProt P06239); assay: SAFETYscan LCK kinase Binding; conditions: Inhibitor mode, 10 μM HU-MCA-13, read-out: Maximal Response
T3 construct: DiscoverX (KINOMEscan)
T3 sequence (P06239 whole entry): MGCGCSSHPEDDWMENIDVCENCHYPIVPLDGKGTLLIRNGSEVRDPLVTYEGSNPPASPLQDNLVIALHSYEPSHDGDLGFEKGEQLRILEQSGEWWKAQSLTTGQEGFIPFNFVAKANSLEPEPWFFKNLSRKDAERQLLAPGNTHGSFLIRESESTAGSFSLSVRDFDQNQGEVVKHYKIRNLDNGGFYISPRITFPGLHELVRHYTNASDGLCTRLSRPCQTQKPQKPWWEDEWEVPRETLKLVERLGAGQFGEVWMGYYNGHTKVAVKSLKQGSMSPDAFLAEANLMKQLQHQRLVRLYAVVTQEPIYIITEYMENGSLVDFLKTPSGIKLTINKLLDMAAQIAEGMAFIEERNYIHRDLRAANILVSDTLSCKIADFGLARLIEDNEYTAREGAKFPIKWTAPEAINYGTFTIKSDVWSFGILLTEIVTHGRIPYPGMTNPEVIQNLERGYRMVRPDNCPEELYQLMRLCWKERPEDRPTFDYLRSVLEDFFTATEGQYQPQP

[5] = biological target: Adrenergic Receptor α1A (ADRA1A) (Homo sapiens, UniProt P35348); assay: SAFETYscan ADRA1A Calcium Flux; assay type: cell-based; conditions: 10 μM HU-MCA-13, read-out: Maximal Response
Adrenergic Receptor α1A (ADRA1A), sequence (P35348 whole entry): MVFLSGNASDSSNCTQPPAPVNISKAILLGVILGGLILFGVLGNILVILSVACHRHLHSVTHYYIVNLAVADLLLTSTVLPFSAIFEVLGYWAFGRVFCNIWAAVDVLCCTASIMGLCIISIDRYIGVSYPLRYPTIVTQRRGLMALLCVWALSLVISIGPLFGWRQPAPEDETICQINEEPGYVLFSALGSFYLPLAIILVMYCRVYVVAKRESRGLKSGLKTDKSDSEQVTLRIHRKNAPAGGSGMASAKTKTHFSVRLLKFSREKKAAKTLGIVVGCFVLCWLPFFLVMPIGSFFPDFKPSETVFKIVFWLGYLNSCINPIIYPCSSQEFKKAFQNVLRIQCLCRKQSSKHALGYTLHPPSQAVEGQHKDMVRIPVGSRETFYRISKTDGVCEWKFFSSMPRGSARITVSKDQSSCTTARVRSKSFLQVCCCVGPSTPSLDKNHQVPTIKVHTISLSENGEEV

[6] = system: Gamma-aminobutyric acid Receptor A (GABAA); assay type: cell-based; conditions: 10 μM HU-MCA-13
[7] = biological target: T4, Nuclear Hormone Glucocorticoid Receptor (GR) (Homo sapiens, UniProt P04150); assay: SAFETYscan GR Nuclear Hormone Receptor Translocation; assay type: cell-based; conditions: 10 μM HU-MCA-13, read-out: Maximal Response
T4 construct: DiscoverX (SAFETYscan contract panel)
T4 sequence (P04150 whole entry): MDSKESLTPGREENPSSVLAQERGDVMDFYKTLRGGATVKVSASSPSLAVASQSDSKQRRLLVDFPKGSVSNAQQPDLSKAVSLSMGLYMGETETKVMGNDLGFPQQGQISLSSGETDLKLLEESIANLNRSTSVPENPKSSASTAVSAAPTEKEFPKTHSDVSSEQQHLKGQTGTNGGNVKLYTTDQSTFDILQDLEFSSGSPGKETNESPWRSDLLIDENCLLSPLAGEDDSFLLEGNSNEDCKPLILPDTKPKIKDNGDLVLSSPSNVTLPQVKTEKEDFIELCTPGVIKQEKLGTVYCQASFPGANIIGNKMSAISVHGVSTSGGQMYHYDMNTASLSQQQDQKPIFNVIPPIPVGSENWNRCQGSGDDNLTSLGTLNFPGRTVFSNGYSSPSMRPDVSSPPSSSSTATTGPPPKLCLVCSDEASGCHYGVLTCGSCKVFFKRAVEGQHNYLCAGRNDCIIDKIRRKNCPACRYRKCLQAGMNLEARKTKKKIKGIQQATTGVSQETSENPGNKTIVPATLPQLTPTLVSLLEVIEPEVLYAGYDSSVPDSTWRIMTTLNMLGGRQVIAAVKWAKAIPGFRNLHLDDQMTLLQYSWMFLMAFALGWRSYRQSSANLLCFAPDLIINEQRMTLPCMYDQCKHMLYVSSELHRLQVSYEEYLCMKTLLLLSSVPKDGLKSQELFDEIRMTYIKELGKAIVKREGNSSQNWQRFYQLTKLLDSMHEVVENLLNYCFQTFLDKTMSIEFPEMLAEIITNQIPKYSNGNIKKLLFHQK

[8] = biological target: T5, Kv7.1/KCNE Potassium voltage-gated channel (KvLQT1/minK) (Homo sapiens, UniProt P51787); assay: SAFETYscan KvLQT1/minK Ion channel; assay type: cell-based; conditions: 10 μM HU-MCA-13, read-out: Maximal Response
T5 construct: DiscoverX (SAFETYscan contract panel)

[9] = biological target: T6, 5-Hydroxytryptamine (Serotonin) Receptor 3A (HTR3A) (Homo sapiens, UniProt P46098); assay: SAFETYscan HTR3A Ion channel; assay type: cell-based; conditions: 10 μM HU-MCA-13, read-out: Maximal Response
T6 construct: DiscoverX (SAFETYscan contract panel)
T6 sequence (P46098 24-478): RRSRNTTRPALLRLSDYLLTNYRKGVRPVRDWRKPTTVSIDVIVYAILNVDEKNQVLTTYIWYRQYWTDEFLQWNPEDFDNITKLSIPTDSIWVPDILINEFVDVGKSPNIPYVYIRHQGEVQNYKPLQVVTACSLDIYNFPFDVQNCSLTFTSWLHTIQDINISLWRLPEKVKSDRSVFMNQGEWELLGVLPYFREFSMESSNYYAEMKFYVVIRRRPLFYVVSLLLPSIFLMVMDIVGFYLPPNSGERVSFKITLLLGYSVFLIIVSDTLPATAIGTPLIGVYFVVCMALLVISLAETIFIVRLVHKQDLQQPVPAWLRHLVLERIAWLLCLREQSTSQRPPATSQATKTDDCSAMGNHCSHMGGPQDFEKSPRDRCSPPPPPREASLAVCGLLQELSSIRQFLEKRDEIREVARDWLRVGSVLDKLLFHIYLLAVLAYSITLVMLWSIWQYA

male C57BL/6 mice [10] = assay: Sensory motor/neurological-neurobehavioral tests (mNSS); assay type: in vivo; conditions: 250 mg/kg iv; for Angle of increase / Beam balance (score) / Hind limb (placing test score) / mNSS / Foot fault / Self-suspension time: individual animal; for Foot fault / Self-suspension time: listed as HU-MCA-13, 250 mg/kg
Method: This pilot study was conducted to obtain acute information of the dose toxicity of HU-MCA-13 (Compound 13 in Scheme 1) in male mice. Male C57BL/6 mice, were injected intravenously with 0.2 ml of HU-MCA-13 in a dose of 250 mg/kg. Mice were monitored for 4 consecutive weeks for autonomic and neurotoxicity symptoms. The mortality and changes on body weight, clinical signs, gross observation, were monitored up to 30 days after treatment. No mortality was found at this high dose of 250 mg/kg. […] The mice were examined once a week for autonomic symptoms by measuring salivation, urinary delivery, pupillary constriction, heart rate, blood pressure, and hair contraction. […] Occurrences of either flaccid or spastic paralysis of the legs were not observed. […] Furthermore, no mice sudden deaths occurred within 24 hours after the injection or during the 4 weeks of observation. […] Sensory motor tests were scored individually and according to the modified neurologic function severity score (mNSS). The data from each individual test and the total score calculated from individual tests that make up the mNSS were measured. The following assays were used: a. beam balance test—mice were placed on a 1-inch wide beam for 60 seconds. A normal response is balance with steady posture for 60 seconds (a score of 0). Deficits are scored if the rat: grasps the side of the beam (a score of 1), hugs the beam and one limb falls down from the beam (a score of 2), hugs the beam and two limbs fall off the beam (a score of 3), attempts to balance on the beam, but falls off from 60 seconds (a score of 4), attempts to balance on the beam but falls off from […], or falls off with no attempt to balance or hang on the beam in <20 seconds (a score of 6); b. foot fault test—forelimb movement dysfunction, while walking on elevated metal grids, was monitored. The animal was placed on horizontal grids (85.5×26.5×20) cm with a glass enclosure for observation. With each weight bearing step, the forelimb can fall or slip between the metal support bars, an event recorded as a foot fault. The total number of forelimb steps and the total number of foot faults were recorded. The percentage of forelimb foot faults to the total steps that occurred within 2 minutes marks the test results; c. hind limb placing test—This test monitors reposition of hind limbs placed down and away from the table edge. The ability to retrieve and place the hind limbs back onto the table was scored. Immediate and complete limb retrieval was scored 0, delayed (>2 seconds) limb retrieval and/or interspersed flailing was scored 1, and no limb retrieval was scored 2; d. Increasing platform angle to slide test—This test monitors the strength and stability of resistance to slide down an inclined platform. It deploys a clean wooden board (60 cm by 40 cm) positioned horizontally. Mice were placed on the board with head facing up the increasing incline. The board then swings to increase the degree of inclination the rat experiences until slipping down the board feet first. The degree of the angle at which the rat relinquishes their grip/stance on the board (slips down) constitute the test results; e. the forelimb whole body suspension test—The test measures grip strength by duration of suspension by forepaws. The rat is suspended on a metal bar (diameter 5 mm) which it tightly holds onto by its forelimbs. The time (seconds) during which each rat could sustain its body weight while holding onto the bar is recorded. The mice drop from the bar onto soft material with no harm. The test was repeated three times and a mean result per rat was used as the score. Cumulatively these sensory motor/neurological findings indicate acute tolerability of 250 mg/kg HU-MCA-13 iv injection in Male C57BL/6 mice.

male C57BL/6 mice [11] = assay: Blood analysis 24 hours after injection; assay type: in vivo
Method: Tail vein blood samples were taken from DMSO 1% treated control (n=3) and HU-MCA-13-injected mice (n=4) after 24 hours from injection and submitted for hematocrit cell counting and biochemical analysis. Blood analyses are depicted in FIG. 4. No difference in any assay (blood count, electrolytes, coagulation parameters) was noted between the DMSO and HU-MCA-13-injected mice. Of special importance are normal liver (ALP, AST, ALT) functions and normal kidney (creatinine and blood urea nitrogen) functions, indicating sufficient organ integrity at the end of the experimental period.

C=CCC1CCC[C@@H](CCC(=O)O)C1=C (some centres unmarked) [Compound 13]
Emax [1]: 0% | Emax [2]: 3.53% | Emax ([3]; Agonist mode): 1.92% | Emax ([3]; Antagonist mode): 9.29% | Emax [4]: 12.8% | Emax ([5]; Agonist mode): 1.12% | Emax ([5]; Antagonist mode): 3.06% | Maximal Response ([6]; Blocker mode): 7.74% | Maximal Response ([6]; Opener mode): 3.68% | Emax ([7]; Agonist mode): 0% | Emax ([7]; Antagonist mode): 2.28% | Emax ([8]; Blocker mode): 0.55% | Emax ([8]; Opener mode): 0% | Emax ([9]; Blocker mode): 0.19% | Emax ([9]; Opener mode): 0% | sensory motor/neurological performance (male C57BL/6 mice [10]; weekly routine motor tests): no neurological losses were observed | Angle of increase (male C57BL/6 mice [10]; Day 0): 35 degrees | Beam balance (score) (male C57BL/6 mice [10]; Day 0): 0 | Hind limb (placing test score) (male C57BL/6 mice [10]; Day 0): 0 | mNSS (male C57BL/6 mice [10]; Day 0): 0 | Foot fault (male C57BL/6 mice [10]; Day 0): 0/34 and 0/41 and 0/38 and 1/48 | Self-suspension time (male C57BL/6 mice [10]; Day 0): 8 seconds and 10 seconds (2×) and 9 seconds | Angle of increase (male C57BL/6 mice [10]; Day 1): 35 degrees | Beam balance (score) (male C57BL/6 mice [10]; Day 1): 0 | Hind limb (placing test score) (male C57BL/6 mice [10]; Day 1): 0 | mNSS (male C57BL/6 mice [10]; Day 1): 0 | Foot fault (male C57BL/6 mice [10]; Day 1): 0/20 and 0/15 and 0/34 and 0/14 | Self-suspension time (male C57BL/6 mice [10]; Day 1): 14 seconds and 12 seconds (2×) and 15 seconds | Angle of increase (male C57BL/6 mice [10]; Day 5): 35 degrees | Beam balance (score) (male C57BL/6 mice [10]; Day 5): 0 | Hind limb (placing test score) (male C57BL/6 mice [10]; Day 5): 0 | mNSS (male C57BL/6 mice [10]; Day 5): 0 | Foot fault (male C57BL/6 mice [10]; Day 5): 2/50 and 1/47 and 0/48 and 0/36 | Self-suspension time (male C57BL/6 mice [10]; Day 5): 13 seconds (2×) and 15 seconds and 14 seconds | kidney (creatinine and blood urea nitrogen) functions (male C57BL/6 mice [11]; 24 hours after 250 mg/kg iv): normal | liver (ALP, AST, ALT) functions (male C57BL/6 mice [11]; 24 hours after 250 mg/kg iv): normal | bilirubin concentration (male C57BL/6 mice [11]; in both control and HU-MCA-13-injected mice): some fluctuation | blood count, electrolytes, coagulation parameters (male C57BL/6 mice [11]; vs DMSO 1% control, 24 hours after 250 mg/kg iv): No difference
